According to the supplement of paper PMC10307832:

Experiments:
Experiment in all cases: relative viability (nuclei count vs DMSO), 5 days (fraction); higher = more cells survive
Trametinib + Bortezomib = compound: CC(=O)Nc1cccc(-n2c(=O)n(C3CC3)c(=O)c3c(Nc4ccc(I)cc4F)n(C)c(=O)c(C)c32)c1 [Trametinib] + CC(C)C[C@H](NC(=O)[C@H](Cc1ccccc1)NC(=O)c1cnccn1)B(O)O [Bortezomib] (partner 0.002 µM)
Method in brief: (§1)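 Lung cancer cell lines in 1536-well plates got either a single drug or a fixed anchor-drug dose together with five library-drug doses (not always all listed) in √10 steps, by pin tool, on the day after seeding. Nuclei were counted after 5 days, and relative viability is the treated-to-vehicle ratio of nuclei counts. Values are medians of duplicate plates.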

Trametinib + Foretinib = compound: CC(=O)Nc1cccc(-n2c(=O)n(C3CC3)c(=O)c3c(Nc4ccc(I)cc4F)n(C)c(=O)c(C)c32)c1 [Trametinib] + COc1cc2c(Oc3ccc(NC(=O)C4(C(=O)Nc5ccc(F)cc5)CC4)cc3F)ccnc2cc1OCCCN1CCOCC1 [Foretinib] (partner 0.25 µM)
Method in brief: as §1

Trametinib + Pemetrexed = compound: CC(=O)Nc1cccc(-n2c(=O)n(C3CC3)c(=O)c3c(Nc4ccc(I)cc4F)n(C)c(=O)c(C)c32)c1 [Trametinib] + Nc1nc2[nH]cc(CCc3ccc(C(=O)N[C@@H](CCC(=O)O)C(=O)O)cc3)c2c(=O)[nH]1 [Pemetrexed] (partner 0.2 µM)
Method in brief: as §1

[1] = compound: CN1C=C(C2=CC=CC=C21)/C=C\3/C4=C(C=CC=N4)NC3=O + Nc1nc2[nH]cc(CCc3ccc(C(=O)N[C@@H](CCC(=O)O)C(=O)O)cc3)c2c(=O)[nH]1 [Pemetrexed] (partner 0.2 µM)
Method in brief: as §1

Cell Line	relative viability (Trametinib + Bortezomib; first compound 0.0025 µM)	relative viability (Trametinib + Bortezomib; first compound 0.007906 µM)	relative viability (Trametinib + Bortezomib; first compound 0.025 µM)	relative viability (Trametinib + Bortezomib; first compound 0.07906 µM)	relative viability (Trametinib + Bortezomib; first compound 0.25 µM)	relative viability (Trametinib + Foretinib; first compound 0.0025 µM)	relative viability (Trametinib + Foretinib; first compound 0.007906 µM)	relative viability (Trametinib + Foretinib; first compound 0.025 µM)	relative viability (Trametinib + Foretinib; first compound 0.07906 µM)	relative viability (Trametinib + Foretinib; first compound 0.25 µM)	relative viability (Trametinib + Pemetrexed; first compound 0.0025 µM)	relative viability (Trametinib + Pemetrexed; first compound 0.007906 µM)	relative viability (Trametinib + Pemetrexed; first compound 0.025 µM)	relative viability (Trametinib + Pemetrexed; first compound 0.07906 µM)	relative viability (Trametinib + Pemetrexed; first compound 0.25 µM)	relative viability ([1]; first compound 0.06325 µM)	relative viability ([1]; first compound 0.2 µM)	relative viability ([1]; first compound 0.6325 µM)	relative viability ([1]; first compound 2 µM)	relative viability ([1]; first compound 0.02 µM)
LCLC-97TM1	0.616	0.482	0.128	0.0773	0.0973	0.817	0.666	0.459	0.306	0.301	0.188	0.238	0.181	0.176	0.152	0.177	0.18	0.21	0.186	–
LCLC-103H	1.16	0.977	0.887	0.821	0.626	0.745	0.637	0.537	0.621	0.429	0.482	0.495	0.523	0.5	0.519	0.455	0.483	0.482	0.462	0.455
LOU-NH91	0.505	0.489	0.491	0.508	0.334	0.909	0.805	0.733	0.757	0.549	0.403	0.414	0.418	0.374	0.382	0.387	0.365	0.348	0.372	0.368
LU99A	1.08	1.21	0.815	0.726	0.407	0.793	0.817	0.637	0.53	0.438	0.206	0.208	0.203	0.193	0.206	0.182	0.176	0.173	0.186	0.156
LXF-289	0.872	0.812	0.757	0.703	0.459	0.956	0.863	0.77	0.661	0.595	0.844	0.832	0.688	0.672	0.772	0.913	0.928	0.881	0.974	0.925
NCI-H23	0.853	1.01	0.364	0.377	0.21	0.874	0.675	0.549	0.513	0.343	0.549	0.47	0.437	0.305	0.264	0.598	0.576	0.788	0.654	0.678
NCI-H322M	1.29	1.14	0.879	1.03	0.717	0.813	0.769	0.677	0.59	0.498	0.581	0.556	0.544	0.417	0.435	0.575	0.598	0.673	0.641	0.606
NCI-H441	0.474	0.55	0.72	0.475	0.17	1.03	1.01	0.699	0.742	0.703	0.3	0.306	0.247	0.261	0.285	0.241	0.264	0.285	0.251	0.275
NCI-H460	1.03	0.82	0.544	0.346	0.043	0.942	0.816	0.549	0.21	0.11	0.0594	0.0614	0.0626	0.0649	0.0564	0.0649	0.0603	0.0702	0.0616	0.0583
NCI-H520	0.612	0.485	0.444	0.44	0.126	0.874	0.785	0.866	0.739	0.585	0.645	0.69	0.667	0.648	0.533	0.53	0.698	0.672	0.732	0.67
NCI-H596	0.759	0.892	0.795	1.47	0.474	0.793	0.596	0.709	0.69	0.396	0.475	0.445	0.477	0.546	0.426	0.494	0.527	0.456	0.531	0.494
NCI-H647	0.853	0.75	0.652	0.654	0.294	1.35	1.08	0.963	0.911	0.4	0.188	0.183	0.152	0.155	0.141	0.173	0.153	0.167	0.175	0.122
NCI-H650	1.06	1.15	0.791	0.729	0.276	1.1	1.17	1.1	1.17	0.839	1.12	1.31	1.01	1.06	0.884	0.875	–	0.805	0.918	0.934
NCI-H661	0.82	0.689	0.728	0.534	0.54	0.941	1	0.794	0.751	0.62	0.882	0.889	0.821	0.753	0.753	0.902	0.89	0.985	0.972	1.02
NCI-H838	0.719	0.563	–	0.557	0.224	0.921	0.889	0.795	0.797	0.638	0.245	0.212	0.229	0.217	0.213	0.235	0.234	0.247	0.246	0.249
NCI-H1355	0.981	1.04	0.554	0.847	0.266	0.993	0.725	0.519	0.606	0.488	1.03	0.946	0.516	0.717	0.615	0.924	0.99	0.916	0.851	0.885

Cell Line	relative viability (Trametinib + Bortezomib; first compound 0.0025 µM)	relative viability (Trametinib + Bortezomib; first compound 0.007906 µM)	relative viability (Trametinib + Bortezomib; first compound 0.025 µM)	relative viability (Trametinib + Bortezomib; first compound 0.07906 µM)	relative viability (Trametinib + Bortezomib; first compound 0.25 µM)	relative viability (Trametinib + Foretinib; first compound 0.0025 µM)	relative viability (Trametinib + Foretinib; first compound 0.007906 µM)	relative viability (Trametinib + Foretinib; first compound 0.025 µM)	relative viability (Trametinib + Foretinib; first compound 0.07906 µM)	relative viability (Trametinib + Foretinib; first compound 0.25 µM)	relative viability (Trametinib + Pemetrexed; first compound 0.0025 µM)	relative viability (Trametinib + Pemetrexed; first compound 0.007906 µM)	relative viability (Trametinib + Pemetrexed; first compound 0.025 µM)	relative viability (Trametinib + Pemetrexed; first compound 0.07906 µM)	relative viability (Trametinib + Pemetrexed; first compound 0.25 µM)	relative viability ([1]; first compound 0.06325 µM)	relative viability ([1]; first compound 0.2 µM)	relative viability ([1]; first compound 0.6325 µM)	relative viability ([1]; first compound 2 µM)	relative viability ([1]; first compound 0.02 µM)
NCI-H1437	0.463	0.257	0.179	0.205	0.174	1.24	1.06	0.754	0.664	0.588	0.271	0.23	0.265	0.203	0.192	0.294	0.344	0.343	0.335	0.305
NCI-H1563	0.854	0.794	0.824	0.682	0.616	0.953	0.815	0.807	0.804	0.694	0.787	0.755	0.574	0.669	0.657	0.694	0.703	0.665	0.752	0.827
NCI-H1650	0.218	0.19	0.182	0.198	0.188	1.18	0.857	0.894	0.838	0.506	0.388	0.324	0.314	0.329	0.216	0.352	0.371	0.384	0.328	0.39
NCI-H1651	0.967	0.9	0.801	0.83	0.43	0.773	0.687	0.702	0.652	0.671	0.554	0.618	0.426	0.47	0.278	0.579	0.574	0.648	0.644	0.651
NCI-H1666	0.639	0.591	0.499	0.452	0.401	0.892	0.758	0.709	0.685	0.59	0.881	0.742	0.753	0.695	0.693	0.861	0.847	0.765	0.737	0.896
NCI-H1734	0.901	0.987	–	0.734	0.349	0.968	0.781	0.582	0.607	0.446	0.418	0.383	–	0.387	0.355	0.4	–	0.425	0.418	0.348
NCI-H1755	0.847	0.835	0.806	0.843	0.679	0.856	0.863	0.82	0.809	0.787	0.378	0.452	0.411	0.47	0.397	0.365	0.427	0.423	0.373	0.351
NCI-H1915	0.931	0.816	0.825	0.756	0.139	1.11	0.781	0.538	0.596	0.298	0.492	0.521	0.313	0.262	0.216	0.41	0.579	0.487	0.504	0.463
NCI-H1975	0.303	0.224	0.206	0.173	0.169	0.973	0.87	0.839	0.334	0.385	0.326	0.284	0.246	0.249	0.226	0.28	0.3	0.283	0.264	0.265
NCI-H1993	0.861	0.834	0.558	0.48	0.596	0.657	0.616	0.678	0.663	0.661	0.511	0.566	0.543	0.543	0.453	0.515	0.641	0.457	0.534	0.564
NCI-H2009	0.929	0.67	0.3	0.332	0.195	1.05	0.708	0.351	0.279	0.302	1.06	0.794	0.499	0.368	0.37	0.947	1.06	1.02	1.02	1.02
NCI-H2023	0.957	0.791	0.582	0.806	0.212	0.795	0.472	0.497	0.35	0.302	0.205	0.187	0.184	0.189	0.14	0.171	–	0.25	0.2	0.274
NCI-H2085	0.994	0.799	0.751	0.783	0.6	0.695	0.732	0.625	0.587	0.626	0.752	0.676	0.545	0.528	0.516	0.927	0.836	0.975	0.967	0.789
NCI-H2087	0.899	0.669	0.446	0.327	0.129	0.803	0.488	0.343	0.211	0.205	0.554	0.642	0.468	0.179	0.281	0.62	0.622	0.631	0.656	0.671
NCI-H2126	1.11	0.956	0.685	0.983	0.769	1.01	1.05	0.994	1	0.816	0.647	0.553	0.464	0.538	0.428	0.62	0.674	0.669	0.594	0.694
